Reference: patent publication US20040138301A1, “Chemical uncouplers for the treatment of obesity” (priority 2002, published 2004)
Like-named read-outs stand apart in the source and are kept apart here.

What was measured:
FSK-4 cells = test: Assay (IV): Glucose utilisation in FSK-4 cells; format: cell-based; conditions: FSK-4 cells; for EC50: glucose utilisation, 24 hours incubation, read-out: FSK4 EC50; for Emax: maximal efficacy relative to FCCP, read-out: FSK4 Emax (% of FCCP)
Protocol: Assay (IV): Glucose Utilisation in FSK-4 Cells
The assay measures indirectly the activity of the respiratory chain in FSK-4 cells by using D-(6-^3H(N))-glucose. The ^3H-proton will first be released in the TCA cyclus and transported to the respiratory chain where it will be incorporated into water. The water is thereafter separated from the D-(6-^3H(N))-glucose by evaporation. Finally, the radioactivity in the water is determined using a Topcounter.
FSK-4 cells obtained from ATCC (Maryland, USA), are cultured in growth medium (McCoy's medium with the following addition 100 units/ml penicillin and streptomycin and 10% FCS (fetal calf serum)) at 37° C. and 5% CO2. All media are obtained by Gibco (Life Technologies, Maryland, USA) where not otherwise mentioned.
At day zero the cells are harvested using trypsin-EDTA and washed in assay medium (MEM medium with the following addition 1× non-essential amino acids (M7145, 2 mM glutamin, 100 units/ml pencillin and streptomycin, 0.0075% sodium bicarbonate, 1 mM sodium pyrovate and 2% horse serum) using centrifugation. The cells are plated into single StripPlates wells (Corning B.V.Life Sciences, The Netherlands) that are placed into 24-well plates (Corning B.V.Life Sciences, The Netherlands) with a concentration of 1,5×10^4 cells/100 μl assay medium/well. The cells are then incubated at 37° C. and 5% CO2 overnight.
(§1) The next day the compounds to be tested are diluted to different concentrations in DMSO (Sigma, Missouri, USA) to 100 times final concentration. They are then diluted to a final concentration in assay medium containing 10 μCi/ml D-(6-^3H(N))-glucose (PerkinElmer Life Sciences Inc., Boston, USA). The medium is removed from the cells and 200 μl of the compound dilutions are added in duplicates. The cells are then incubated for another 24 hours at 37° C. and 5% CO2. Finally the cells are lysed by adding 50 μl 10% TCA (tri-chloroacetatic acid). 300 μl of sterile water is then added to the 24-wells that surrounds the StripPlate wells. The plate is sealed with Top-seal-tape (Packard, PerkinElmer Life Sciences Inc., Boston, USA) and the plate is incubated in a heating cupboard at 50° C. to equilibrium the radioactive water formed in the respiratory chain into the water in the 24-well plate by evaporate. The plates incubate for 8 hours where the heating cupboard is turned off. The top seal is removed when the samples have reached room temperature. One ml scintillation liquid (Packard Microscient, PerkinElmer Life Sciences Inc., Boston, USA) is added to all the samples and the radioactivity is determined using a Topcounter (Packard, PerkinElmer Life Sciences Inc., Boston, USA). Non-specific activity is determined by evaporating 200 μl of the dilution medium containing the D-(6-^3H(N))-glucose into 300 μl sterile water, and total radioactivity is determined by counting 5 μl assay medium with 10 μCi/ml D-(6-^3H(N))-glucose.
All calculations are done using GraphPad Prism 3.0 (GraphPad software, Inc.) From concentration-response curves the half maximal concentration (EC50) and maximal efficacy (Emax) are calculated using equation 1.
Y=Bottom+(Top−Bottom)/(1+10^((LogEc50-X)*slope))
(§2) X is the logarithm of the molar concentration of the test compound.
Y is the degree of stimulation caused by the compound measured as percentage of the basal stimulation.
The calculated EC50 value is then used to determine the concentrations used in a study where the Hill slope is calculated.
From the double logarithmic plot of the increase in glucose utilisation and the compound concentration the Hill slope is calculated accordingly to equation 2.
It is presumed, that the maximal increase in the glucose utilisation (as measured in the FSK-4 glucose utilisation assay) is limited by the capacity of the metabolism.

HEP-G2 cells = test: cells; conditions: for HEP-G2 Tox: human, 3 h
Protocol: Assay (I): Glucose utilisation in a human hepatocytes cell line (HEP-G2 cells)
The assay measures indirectly the activity of the respiratory chain in HEP-G2 cells by using D-(3-^3H(N))-glucose. The ^3H-proton will first be released during the metabolism of glucose where it will be incorporated into water. The water is thereafter separated from the D-(3-^3H(N))-glucose by evaporation. Finally, the radioactivity in the water is determined using a Topcounter.
HEP-G2 cells obtained from ATCC (Maryland, USA), are cultured in assay medium (MEM medium) with the following addition 1× non-essential amino acids (M7145, 2 mM glutamine, 100 units/ml penicillin and streptomycin, 0.0075% sodium bicarbonate, 1 mM sodium pyrovate and 0.5% BSA (Bovin Serum Albumin, Sigma Missouri, USA)) at 37° C. and 5% CO2. All media are obtained by Gibco (Life Technologies, Maryland, USA) where not otherwise mentioned.
At day zero the cells are harvested using trypsin-EDTA and washed in assay medium using centrifugation. […] The cells are then incubated at 37° C. and 5% CO2 overnight.
as §1, with “diluted” for “diluted to different concentrations”, “μCi/ml D-(3-^3H(N))-glucose” for “μCi/ml D-(6-^3H(N))-glucose”, “another 3” for “another 24”, “TCA (trichloroacetic” for “TCA (tri-chloroacetatic”, “the D-(3-^3H(N))-glucose” for “the D-(6-^3H(N))-glucose”, “μCi/ml D-(3-^3H(N))-glucose.” for “μCi/ml D-(6-^3H(N))-glucose.”
The cpm (counts per minute) representing the non-specific radioactivity in the D-(3-^3H(N))-glucose is subtracted from all incubated values. Then mean basal value (samples without any compound added) is subtracted from the values of all stimulated samples (samples added different concentrations of the different test compounds). All these calculations are done using GraphPad Prism 3.0 (GraphPad software, Inc.). The maximal stimulation caused by the test compounds is calculated in percentage of maximal stimulation caused by either DNP or FCCP.
When calculating the concentration-response curve the maximal glucose utilisation stimulated by FCCP or DNP (subtracted non-specific and basal values) is converted to 100% and all the other values are expressed in percentage of this value. Using these percentage values and the compound concentration a concentration-response curve is calculated using sigmoidal dose-response (variable slope) equation (all the calculations are done by GraphPad Prism 3.0 (GraphPad software, Inc.));
Y=Bottom+(Top−Bottom)/(1+10^((LogEC50-X)*slope))
as §2
Y is the degree of stimulation caused by the compound measured as a percentage of the maximal stimulation achieved by use of FCCP or DNP.
The results achieved with these concentrations are used to determine the slope in this area using the following equation: […]

[1] = Homo sapiens, HepG2, 3 h, read-out: HEP-G2 EC50, HEP-G2 cells, glucose utilisation, 3 hours incubation
[2] = Homo sapiens, HepG2, read-out: HEP-G2 Emax (% of FCCP), HEP-G2 cells, maximal stimulation relative to FCCP
[3] = Homo sapiens, HepG2, read-out: HEP-G2 Emax (μM), HEP-G2 cells, concentration at which Emax is achieved (CEmax)

Row | Structure (SMILES) | EC50 (FSK-4 cells) [µM] | Emax (FSK-4 cells) [%] | EC50 (HEP-G2 cells; [1]) [µM] | Emax (HEP-G2 cells; [2]) [%] | EC (Emax) (HEP-G2 cells; [3]) [µM] | HEP-G2 Tox (HEP-G2 cells) | EC50 (HEP-G2 cells; Homo sapiens, HepG2, 3 h, read-out: HEP-G2 EC50) [µM] | Emax (HEP-G2 cells; Homo sapiens, HepG2, read-out: HEP-G2 Emax (% of FCCP)) [%] | EC (Emax) (HEP-G2 cells; Homo sapiens, HepG2, read-out: HEP-G2 Emax (μM)) [µM] | EC50 (HEP-G2 cells; read-out: HEP-G2 EC50, HEP-G2 cells, glucose utilisation, 3 hours incubation) [µM]
1 | Cc1ccc(C(C)(C)C)c(O)c1C(=O)Nc1ccc([N+](=O)[O-])cc1Cl [Example 10] | 0.3 | 80 | 0.37 | 100 | 3 |  |  |  |  | 
2 | CC(C)(C)c1cc(C[P+](c2ccccc2)(c2ccccc2)c2ccccc2)cc(C(C)(C)C)c1O [Example 11, (3,5-Di-Tert-Butyl-4-Hydroxybenzyl)Triphenylphosphonium Bromide] | 0.3 | 90 | 0.7 | 75 | 3 | Tox 0.03 mM |  |  |  | 
3 | CC(C)(C)c1cc(C[P+](C2CCCCC2)(C2CCCCC2)C2CCCCC2)cc(C(C)(C)C)c1O [Example 12, (3,5-Di-Tert-Butyl-4-Hydroxybenzyl)Tricyclohexylphosphonium Bromide] | 0.3 | 85 | 1.2 | 70 | 10 | Tox 0.03 mM |  |  |  | 
4 | CCCC[P+](CCCC)(CCCC)Cc1cc(C(C)(C)C)c(O)c(C(C)(C)C)c1.[Br-] [Example 13, (3,5-Di-Tert-Butyl-4-Hydroxybenzyl)Tributylphosphonium Bromide] | 1 | 85 | 2.9 | 70 | 10 | Tox 0.03 mM |  |  |  | 
5 | CCCCCCCC[P+](CCCCCCCC)(CCCCCCCC)Cc1cc(C(C)(C)C)c(O)c(C(C)(C)C)c1.[Br-] [Example 14, (3,5-Di-Tert-Butyl-4-Hydroxybenzyl)Trioctylphosphonium Bromide] | 0.2 | 100 | 1.1 | 100 | 10 | Tox 0.01 mM |  |  |  | 
6 | CCOC(=O)/C(C#N)=C/c1cc(C(C)(C)C)c(O)c(C(C)(C)C)c1 [Example 15, 2-Cyano-3-(3,5-Di-Tert-Butyl-4-Hydroxyphenyl)-Acrylic Acid Ethyl Ester] | 2 | 65 | 0.7 | 100 | 3 |  |  |  |  | 
7 | CCOC(=O)C(=Cc1cc(C(C)(C)C)c(O)c(C(C)(C)C)c1)C(=O)OCC [Example 16, 2-(3,5-Di-Tert-Butyl-4-Hydroxy-Benzylidene)-Malonic Acid Diethyl Ester] | 30 | 45 | 11 | 100 | 100 |  |  |  |  | 
8 | CC(C)(C)c1cc(C=C2C(=O)c3ccccc3C2=O)cc(C(C)(C)C)c1O [Example 18, 2-(3,5-Di-Tert-Butyl-4-Hydroxy-Benzylidene)-Indan-1,3-Dione] | 6 | 100 | 0.6 | 80 | 3 |  |  |  |  | 
9 | N#CC(C#N)=Cc1c(-c2ccc(Cl)cc2)[nH]c2ccccc12 [Example 19, 2-[[2-(4-Chlorophenyl)-1H-Indol-3-Yl]Methylene]Malononitrile] | 1.1 | 55 | 7 | 100 | 100 |  |  |  |  | 
10 | Clc1ccc(-c2cc3ccccc3[nH]2)cc1 [Example 20, 2-(4-Chlorophenyl)-Indole] | 26 | 90 | 50 | 55 | 300 |  |  |  |  | 
11 | Cc1c(Cl)cc(C(C)(C)C)c(O)c1C(=O)Nc1ccc(Cl)c(C(F)(F)F)c1 [Example 42, 3-Tert-Butyl-5-Chloro-N-(4-Chloro-3-Trifluoromethyl-Phenyl)-2-Hydroxy-6-Methyl-Benzamide] | 1.1 | 75 | 3.3 | 89 | 10 |  |  |  |  | 
12 | Cc1c(Cl)cc(C(C)(C)C)c(O)c1C(=O)Nc1ccc(C#N)c(C(F)(F)F)c1 [Example 43, 3-Tert-Butyl-5-Chloro-N-(4-Cyano-3-Trifluoromethyl-Phenyl)-2-Hydroxy-6-Methyl-Benzamide] | 0.3 | 80 |  |  |  |  | 0.85 | 95 | 3 | 
13 | O=C(Nc1ccc([N+](=O)[O-])cc1Cl)c1cccc(-c2ccccc2)c1O [Example 44, 2-Hydroxy-Biphenyl-3-Carboxylic Acid (2-Chloro-4-Nitro-Phenyl)-Amide] | 3.6 | 90 | 2 | 94 |  |  |  |  |  | 1.4
